From US4954490A, “11 β-substituted progesterone analogs” (Research Triangle Institute, priority 1988, dated 1990)
Entries after “also recorded” stand apart in the source; their conditions may differ.

Experiments:
[1] = test system: endometrial response due to subcutaneous administration of progesterone; assay: Anti-McGinty intrauterine antiprogestational test; type: in vivo, estrogen-primed immature female rabbits; conditions: for ED90 (actual dose) / ED50 / ED90 (calculated): intrauterine; for ED50 / ED90 (calculated): from % Inhib = a + b · ln dose
Protocol: The antiprogestational activity of the compounds was studied after both intrauterine and oral administration. In each case the compound was tested for its ability to inhibit the endometrial response due to subcutaneous administration of progesterone to estrogen-primed immature female rabbits. The methodology used for the intrauterine test has been described by D. A. McGinty et al. See Endocrinology, 24, 829 (1939). For oral administration of test compounds, the method used was analogous to that of Clauberg. See Clauberg, Zentr. Gynakol., 54, 2757 (1930) as modified by McPhail J. Physiol. (London), 83, 145 (1935). Each active compound was characterized by a dose-related ability to block the progestational effect of simultaneously administered progesterone. When the percent inhibition was plotted versus the log of the dose, linear relationships were obtained. Linear regression analysis permitted calculation of the ED50 and ED90 values (the doses required for 50% and 90% inhibition of the progesterone effect, respectively). The actual dose which gave 90% or more inhibition is also given, although this value is probably less accurate than the calculated values which are based on the dose-response line. […] Since the intrauterine administration bypasses most of the drug-metabolizing systems of the body, especially the liver, intrinsic activity is expected to correlate reasonably well with binding activity to the receptor, according to currently held hypotheses regarding receptor binding.

glucocorticoid receptor = molecular target: T1, glucocorticoid receptor (Rattus norvegicus, UniProt P06536); assay: Relative binding affinity to glucocorticoid receptor of thymus (displacement of tritium-labeled dexamethasone); parameters: species or system rat (adrenalectomized); conditions: relative to dexamethasone (=100)
T1 construct: glucocorticoid receptor from thymus of adrenalectomized rats; from tissue; host or cells: thymus of adrenalectomized rats
T1 sequence (P06536 1-795): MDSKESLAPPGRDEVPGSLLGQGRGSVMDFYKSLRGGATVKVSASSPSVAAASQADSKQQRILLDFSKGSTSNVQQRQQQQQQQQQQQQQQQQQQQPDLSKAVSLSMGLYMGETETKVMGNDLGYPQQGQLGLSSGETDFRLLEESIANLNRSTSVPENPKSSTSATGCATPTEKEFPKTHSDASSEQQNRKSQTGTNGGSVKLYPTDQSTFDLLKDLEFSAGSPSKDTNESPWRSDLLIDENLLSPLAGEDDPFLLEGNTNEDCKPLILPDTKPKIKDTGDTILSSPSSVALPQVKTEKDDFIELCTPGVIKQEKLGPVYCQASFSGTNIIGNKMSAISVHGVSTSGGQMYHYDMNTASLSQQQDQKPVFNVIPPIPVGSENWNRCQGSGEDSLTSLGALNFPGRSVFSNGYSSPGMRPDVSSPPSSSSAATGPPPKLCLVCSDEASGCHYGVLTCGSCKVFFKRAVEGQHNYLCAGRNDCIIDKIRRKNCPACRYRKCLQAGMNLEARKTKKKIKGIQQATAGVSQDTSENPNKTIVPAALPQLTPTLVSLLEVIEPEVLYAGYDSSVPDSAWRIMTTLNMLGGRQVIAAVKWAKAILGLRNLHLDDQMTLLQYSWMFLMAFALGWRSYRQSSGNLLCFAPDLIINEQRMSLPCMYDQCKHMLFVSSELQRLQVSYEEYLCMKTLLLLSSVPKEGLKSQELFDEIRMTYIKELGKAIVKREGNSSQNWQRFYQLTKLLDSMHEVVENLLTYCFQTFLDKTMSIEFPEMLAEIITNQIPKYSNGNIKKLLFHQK
Protocol: (§1) The in vitro activity of the subject compounds was determined by measuring the binding affinities (RBA) of these compounds relative to progesterone for the progesterone receptor in the cytosol obtained from estrogen-primedimmature rabbit uterus and by measuring the RBA relative to dexamethasone for the glucocorticoid receptor from thymus of adrenalectomized rats. These assays were carried out by the procedures of J. R. Reel et al., Fertility and Sterility, 31, 552 (1979) (progesterone) and G. P. Chrousos et al., Endocrinology, 107, 472 (1980) (glucocorticoid).
^b Relative ability to displace tritiumlabeled dexamethasone from the
receptor of the thymus of adrenalectomized rats as compared to […]

progesterone receptor = molecular target: T2, progesterone receptor (Oryctolagus cuniculus, UniProt P06186); assay: Relative binding affinity to progesterone receptor in uterine cytosol (displacement of tritium-labeled progesterone); parameters: species or system rabbit (estrogen-primed immature female); conditions: for P-RBA/G-RBA: ratio of RBA values for progesterone receptor to glucocorticoid receptor; for Progestin RBA: relative to progesterone (=100), rabbit uterine cytosol
T2 construct: in the cytosol obtained from estrogen-primedimmature rabbit uterus; from tissue; host or cells: uterine cytosol of estrogen-primed immature female rabbits
T2 sequence (P06186 1-930): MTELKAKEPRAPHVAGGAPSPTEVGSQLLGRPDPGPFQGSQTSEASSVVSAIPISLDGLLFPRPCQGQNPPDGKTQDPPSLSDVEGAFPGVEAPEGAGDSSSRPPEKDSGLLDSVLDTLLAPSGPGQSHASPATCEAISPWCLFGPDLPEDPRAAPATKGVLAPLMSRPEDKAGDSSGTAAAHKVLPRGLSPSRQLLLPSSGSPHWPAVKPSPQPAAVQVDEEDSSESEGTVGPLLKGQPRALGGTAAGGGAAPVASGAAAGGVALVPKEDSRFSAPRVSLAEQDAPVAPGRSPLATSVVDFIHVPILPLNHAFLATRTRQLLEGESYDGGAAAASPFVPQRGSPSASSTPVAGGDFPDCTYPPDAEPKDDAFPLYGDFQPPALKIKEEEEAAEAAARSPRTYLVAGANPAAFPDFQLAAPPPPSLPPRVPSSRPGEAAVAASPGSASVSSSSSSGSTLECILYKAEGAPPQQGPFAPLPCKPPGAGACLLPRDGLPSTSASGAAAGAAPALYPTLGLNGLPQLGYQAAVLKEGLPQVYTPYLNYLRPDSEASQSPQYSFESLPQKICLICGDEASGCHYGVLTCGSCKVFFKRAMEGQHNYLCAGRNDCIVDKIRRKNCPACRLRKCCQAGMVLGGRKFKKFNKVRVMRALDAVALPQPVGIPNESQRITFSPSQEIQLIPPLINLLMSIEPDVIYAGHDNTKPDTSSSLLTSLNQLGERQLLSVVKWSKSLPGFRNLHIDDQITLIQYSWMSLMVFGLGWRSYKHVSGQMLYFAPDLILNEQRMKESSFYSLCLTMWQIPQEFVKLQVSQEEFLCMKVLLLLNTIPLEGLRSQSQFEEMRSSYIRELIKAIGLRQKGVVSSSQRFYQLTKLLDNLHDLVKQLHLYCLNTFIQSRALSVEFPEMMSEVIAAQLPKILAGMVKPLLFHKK
Protocol: as §1
^a Relative ability to displace tritiumlabeled progesterone from the
receptor in uterine cytosol from estrogenprimed immature female rabbits a
compared with progesterone (=100).

[2] = test system: endometrial response due to subcutaneous administration of progesterone; assay: Oral antiprogestational activity (Anti-Clauberg); type: in vivo, estrogen-primed immature female rabbits; conditions: for % Inhibition: based on change in McPhail Index; for McPhail Index: scale 0-4; for Wt of Uterus: ± SD
Protocol: The antiprogestational activity of the compounds was studied after both intrauterine and oral administration. In each case the compound was tested for its ability to inhibit the endometrial response due to subcutaneous administration of progesterone to estrogen-primed immature female rabbits. The methodology used for the intrauterine test has been described by D. A. McGinty et al. See Endocrinology, 24, 829 (1939). For oral administration of test compounds, the method used was analogous to that of Clauberg. See Clauberg, Zentr. Gynakol., 54, 2757 (1930) as modified by McPhail J. Physiol. (London), 83, 145 (1935).

[3] = test system: endometrial proliferation (McPhail Index); assay: Progestational activity, intrauterine (McGinty assay); type: in vivo, estrogen-primed immature female rabbits; conditions: right horn control 0
Protocol: In this assay estrogen-primed immature female rabbits are treated by injection of the test compound into the left horn of the uterus while the right horn is left untreated as a control. Each horn is then scored for endometrial proliferation by the McPhail Index. […] It indicates a possible need for reassessment of the current hypotheses regarding the effect of this substituent on antagonist versus agonist activity.

[4] = actual dose giving ≥ 90% inhibition
[5] = total oral dose 1.0 mg, total SC progesterone 0.8 mg, N=6
[6] = total oral dose 5.0 mg, total SC progesterone 0.8 mg, N=6
[7] = total oral dose 10.0 mg, total SC progesterone 0.8 mg, N=5
[8] = progesterone alone, total SC dose 0.8 mg, no oral compound, N=6

Structure (SMILES) | Glucocort. RBA (glucocorticoid receptor) | P-RBA/G-RBA (progesterone receptor) | Progestin RBA (progesterone receptor) | ED90 (actual dose) [1, 4] | ED50 [1] | ED90 (calculated) [1] | also measured
CC(=O)O[C@]1(C(C)=O)CC[C@H]2[C@@H]3CCC4=CC(=O)CCC4=C3[C@@H](c3ccc(N(C)C)cc3)C[C@@]21C [Compound 8a, 17α-acetoxy-11β-(4-N,N-dimethylaminophenyl)-19-norpregna-4,9-diene-3,20-dione] | 198 | 0.24 | 47 | 2.0 µg | 0.41 µg | 1.2 µg | 
CC(=O)O[C@]1(C(C)=O)CC[C@H]2[C@@H]3C[C@H](C)C4=CC(=O)CCC4=C3[C@@H](c3ccc(N(C)C)cc3)C[C@@]21C [Compound 8b, 6α-methyl-17α-acetoxy-11β-(4-N,N-dimethylaminophenyl)-19-norpregna-4,9-diene-3,20-dione] | 242 | 0.18 | 43 | 2.0 µg | 0.54 µg | 1.9 µg | % Inhibition [2, 5]: 12.7 ± 3.0%; % Inhibition [2, 6]: 51.6 ± 12.2%; % Inhibition [2, 7]: 67.2 ± 6.1%; McPhail Index [2, 5]: 3.46 ± 0.12; McPhail Index [2, 6]: 1.92 ± 0.48; McPhail Index [2, 7]: 1.30 ± 0.24; Wt of Uterus [2, 5]: 3.26 ± 0.34 g; Wt of Uterus [2, 6]: 2.14 ± 0.22 g; Wt of Uterus [2, 7]: 2.24 ± 0.27 g
CC[C@@H]1C[C@H]2[C@@H]3C[C@H](C)C4=CC(=O)CCC4=C3[C@@H](c3ccc(N(C)C)cc3)C[C@]2(C)[C@H]1C(C)=O [Compound 15a, 6α-Methyl-16α-ethyl-11β-(4-N,N-dimethylaminophenyl)-19-norpregna-4,9-diene-3,20-dione] | 246 | 0.42 | 61 |  |  |  | ED90 (actual dose) ([1]; footnote c: no inhibition at tested dose): < 10 µg; McPhail Index, Left Horn (Treated) ([3]; dose 20.0 μg intrauterine): 3.8 ± 0.12; McPhail Index, Left Horn (Treated) ([3]; dose 40.0 μg intrauterine): 3.9 ± 0.12; McPhail Index, Left Horn (Treated) ([3]; dose 80.0 μg intrauterine): 3.8 ± 0.12
CC(=O)C1=CC[C@H]2[C@@H]3CCC4=CC(=O)CCC4=C3[C@@H](c3ccc(N(C)C)cc3)C[C@]12C [Compound 23, 11β-(4-N,N-Dimethylaminophenyl)-19-norpregna-4,9,16-triene-3,20-dione] |  |  | 8 | 1.0 µg | 0.26 µg | 0.81 µg | antiprogestational activity in vivo (in words) ([1]; rabbit, in vivo, listed as Δ-16 compound): even more potent activity; also recorded: exhibits strong antiprogestational activity; binding to the progesterone receptor (in words) (progesterone receptor): binds relatively weakly to the progesterone receptor; RBA as fraction of the value of the 17α-acetoxy compounds (progesterone receptor; compared with the 17α-acetoxy compounds): less than one-fifth
CC[C@@H]1C[C@H]2[C@@H]3C[C@@H](C)C4=CC(=O)CCC4=C3[C@@H](c3ccc(N(C)C)cc3)C[C@]2(C)[C@H]1C(C)=O [H, Et, β-CH3, 68-methyl-16α-ethyl-118-(4-N,N-dimethylaminophenyl)-19-norpregna-4,9-diene-3,20-dione] | 106 | 0.45 | 48 |  |  |  | 
CC(=O)[C@H]1CC[C@H]2[C@@H]3CCC4=CC(=O)CC[C@]4(C)[C@H]3CC[C@]12C [Progesterone, progesterone] |  |  |  |  |  |  | Wt of Uterus [2, 8]: 3.06 ± 0.45 g; McPhail Index [2, 8]: 3.96 ± 0.04

Now from value to compound, other results behind:

Glucocort. RBA (glucocorticoid receptor) | P-RBA/G-RBA (progesterone receptor) | Progestin RBA (progesterone receptor) | Structure (SMILES) | ED90 (actual dose) [1, 4] | ED50 [1] | ED90 (calculated) [1] | also measured
 |  | 15 | CC(=O)O[C@]1(C(C)=O)CC[C@H]2[C@@H]3C[C@@H](C)C4=CC(=O)CCC4=C3[C@@H](c3ccc(N(C)C)cc3)C[C@@]21C [OAc, H, β-CH3] |  |  |  | 
41 | 0.37 | 15 | CC(=O)[C@@]1(O)CC[C@H]2[C@@H]3CCC4=CC(=O)CCC4=C3[C@@H](c3ccc(N(C)C)cc3)C[C@@]21C [OH, H, H] |  |  |  | 
175 | 0.26 | 46 | CC(=O)[C@@]1(O)CC[C@H]2[C@@H]3C[C@H](C)C4=CC(=O)CCC4=C3[C@@H](c3ccc(N(C)C)cc3)C[C@@]21C [OH, H, α-CH3] |  |  |  | 
